From the NIST ThermoML archive (doi:10.1021/je060496l)

Key:
[1] = 101 kPa, Liquid
[2] = xn = mol fraction of the nth substance listed; settings: 101 kPa, Liquid

CC(O)CO (configuration not stated) [1,2-propanediol]
[1]
Settings	mass density [kg/m3]
298.15 K	1032.5
303.15 K	1029.2
308.15 K	1025.3
313.15 K	1021.5
318.15 K	1018
323.15 K	1014
328.15 K	1010.2
333.15 K	1006.2

CC(O)CO (configuration not stated) [1,2-propanediol] + OCC(O)CO
mass density [kg/m3], [2]
Settings	x2 = 0	x2 = 0.0841	x2 = 0.1712	x2 = 0.2615	x2 = 0.3552	x2 = 0.4524	x2 = 0.5534	x2 = 0.6585	x2 = 0.7677	x2 = 0.8815
298.15 K	1032.5	1052.6	1072.7	1094.1	1115.8	1138.3	1161	1184.4	1207.8	1233.3
303.15 K	1029.2	1049.2	1069.6	1090.5	1112.6	1134.8	1157.5	1181.2	1205	1230.1
308.15 K	1025.3	1045.7	1066.1	1087.1	1109.3	1131.4	1154.2	1178	1202.2	1227.4
313.15 K	1021.5	1042	1062.4	1083.8	1105.6	1128.2	1151.2	1175.1	1199.2	1224.4
318.15 K	1018	1038.5	1058.6	1080.2	1102.3	1124.8	1147.9	1171.5	1195.6	1221
323.15 K	1014	1034.7	1055	1076.3	1098.3	1121.2	1144.1	1168.1	1192.5	1218
328.15 K	1010.2	1031	1051.4	1072.7	1094.7	1117.5	1140.5	1164.6	1189	1214.7
333.15 K	1006.2	1027.2	1047.6	1069.2	1091.2	1114.3	1137.3	1161.3	1185.8	1211.3

OCC(O)CO [glycerol]
[1]
Settings	mass density [kg/m3]
298.15 K	1258.9
303.15 K	1255.6
308.15 K	1252.7
313.15 K	1249.5
318.15 K	1246.2
323.15 K	1242.9
328.15 K	1239.6
333.15 K	1236

OCC(O)CO [glycerol] + CC(C)O
mass density [kg/m3], [2]
Settings	x1 = 0.0676	x1 = 0.1402	x1 = 0.2185	x1 = 0.3031	x1 = 0.3949	x1 = 0.4946	x1 = 0.6036	x1 = 0.723	x1 = 0.8545	x1 = 1
298.15 K	813.5	848.6	887.5	929.1	974.3	1023.8	1077	1135.2	1196.5	1258.9
303.15 K	809.5	844.7	883.8	926.4	970.6	1020	1073.4	1131.9	1193.4	1255.6
308.15 K	805.5	840.5	879.9	922.3	967.3	1016.2	1070.4	1128.5	1190	1252.7
313.15 K	801.4	836.1	875.9	918.4	963.4	1012.6	1067	1125	1186.8	1249.5
318.15 K	796.8	831.9	871.7	914.5	959.2	1008.7	1063.1	1121.3	1183.2	1246.2
323.15 K	792.2	827.6	867.4	910.2	955.3	1004.8	1059.6	1117.6	1180.3	1242.9
328.15 K	787.5	823.3	863.3	906.2	951.3	1000.9	1055.7	1114.1	1176.6	1239.6
333.15 K	782.9	818.4	858.8	901.6	947.5	997.2	1051.9	1110.5	1173.1	1236

OCC(O)CO [glycerol] + CC(O)CO
[2], x1 = 1
Settings	mass density [kg/m3]
298.15 K	1258.9
303.15 K	1255.6
308.15 K	1252.7
313.15 K	1249.5
318.15 K	1246.2
323.15 K	1242.9
328.15 K	1239.6
333.15 K	1236

OCC(O)CO [glycerol] + CCCO
mass density [kg/m3], [2]
Settings	x1 = 0.0676	x1 = 0.1402	x1 = 0.2185	x1 = 0.3031	x1 = 0.3949	x1 = 0.4946	x1 = 0.6036	x1 = 0.723	x1 = 0.8545	x1 = 1
298.15 K	832.8	867.3	903.5	942.9	986	1032.7	1083.1	1138.8	1198.7	1258.9
303.15 K	828.9	863.2	900	939.3	982.1	1029.5	1079.9	1135.7	1195.6	1255.6
308.15 K	825	859.4	896	935.6	978.4	1025.9	1076.3	1132.4	1192.7	1252.7
313.15 K	820.7	855.4	892.1	931.5	974.7	1022.3	1072.7	1128.8	1189.5	1249.5
318.15 K	816.8	851.3	888.3	927.7	970.8	1018.4	1069.2	1125.5	1186.1	1246.2
323.15 K	812.5	847.2	884.1	923.6	966.8	1014.7	1065.5	1122	1182.7	1242.9
328.15 K	808.4	843.1	880.3	919.7	963.3	1010.8	1061.8	1118.3	1179.2	1239.6
333.15 K	804.3	839.2	876.3	915.7	959.4	1006.8	1058	1114.3	1175.8	1236

OCC(O)CO [glycerol] + OCCCO
[2], x1 = 1
Settings	mass density [kg/m3]
298.15 K	1258.9
303.15 K	1255.6
308.15 K	1252.7
313.15 K	1249.5
318.15 K	1246.2
323.15 K	1242.9
328.15 K	1239.6
333.15 K	1236

OCCCO [propan-1,3-diol]
[1]
Settings	mass density [kg/m3]
298.15 K	1049.9
303.15 K	1047
308.15 K	1044.1
313.15 K	1040.8
318.15 K	1037.8
323.15 K	1034.8
328.15 K	1031.4
333.15 K	1028.2

OCCCO [propan-1,3-diol] + OCC(O)CO
mass density [kg/m3], [2]
Settings	x2 = 0	x2 = 0.0841	x2 = 0.1712	x2 = 0.2615	x2 = 0.3552	x2 = 0.4524	x2 = 0.5534	x2 = 0.6585	x2 = 0.7677	x2 = 0.8815
298.15 K	1049.9	1067.8	1086.4	1105.7	1125.6	1146.4	1167.6	1189.3	1212.6	1235.2
303.15 K	1047	1065	1083.5	1103	1122.8	1143.4	1164.6	1186.4	1209	1232.1
308.15 K	1044.1	1062	1080.6	1100	1119.8	1140.6	1161.8	1183.5	1206.1	1229.3
313.15 K	1040.8	1058.8	1077.5	1096.9	1116.8	1137.3	1158.7	1180.4	1203	1226.1
318.15 K	1037.8	1055.7	1074.5	1093.9	1113.7	1134.3	1155.6	1177.2	1199.7	1222.8
323.15 K	1034.8	1052.7	1071.4	1090.9	1110.7	1131.2	1152.5	1174.1	1196.6	1219.8
328.15 K	1031.4	1049.3	1068.1	1087.6	1107.5	1127.8	1149.2	1170.8	1193.4	1216.6
333.15 K	1028.2	1046.1	1064.9	1084.4	1104.1	1124.6	1145.9	1167.5	1190	1213.3

CCCO [propan-1-ol]
[1]
Settings	mass density [kg/m3]
298.15 K	799.6
303.15 K	795.5
308.15 K	791.5
313.15 K	787.3
318.15 K	783.3
323.15 K	779
328.15 K	774.9
333.15 K	770.8

CCCO [propan-1-ol] + OCC(O)CO
[2], x2 = 0
Settings	mass density [kg/m3]
298.15 K	799.6
303.15 K	795.5
308.15 K	791.5
313.15 K	787.3
318.15 K	783.3
323.15 K	779
328.15 K	774.9
333.15 K	770.8

CC(C)O [propan-2-ol]
[1]
Settings	mass density [kg/m3]
298.15 K	780.6
303.15 K	776.6
308.15 K	772.3
313.15 K	767.9
318.15 K	763.3
323.15 K	758.6
328.15 K	753.8
333.15 K	748.9

CC(C)O [propan-2-ol] + OCC(O)CO
[2], x2 = 0
Settings	mass density [kg/m3]
298.15 K	780.6
303.15 K	776.6
308.15 K	772.3
313.15 K	767.9
318.15 K	763.3
323.15 K	758.6
328.15 K	753.8
333.15 K	748.9
